Usually EC50 stands for the midpoint of the concentration-response curve. A high value points to lower potency in that assay. What is called Emax is the maximal effect, on the per cent scale that the assay sets.

Each structure is given as a SMILES string.

In test [1] the target is T1, human ganglionic nAChR subtype (Homo sapiens, UniProt P30926+P32297).
T1 construct: endogenous in cells; host or cells: SH-SY5Y human neuroblastoma cells
In words: 86Rb+ efflux in SH-SY5Y cells (human ganglionic nAChR subtype). Format: cell-based. From the text:
Example 8: Interaction at the Human Ganglionic nAChR Subtype
The cell line SH-SY5Y is a continuous line derived by sequential subcloning of the parental cell line, SK-N-SH, which was originally obtained from a human peripheral neuroblastoma. SH-SY5Y cells express a ganglion-like nAChR (Lukas et al., Mol. Cell. Neurosci. 4: 1 (1993)).
Human SH-SY5Y cells were maintained in proliferative growth phase according to routine protocols (Bencherif et al., Mol. Cell. Neurosci. 2: 52 (1991) and Bencherif et al., J. Pharmacol. Exp. Ther. 257: 946 (1991)). Cells were cultured in Dulbecco's modified Eagle's medium (Gibco/BRL) with 10% horse serum (Gibco/BRL), 5% fetal bovine serum (HyClone, Logan Utah), 1 mM sodium pyruvate, 4 mM L-Glutamine, and 50,000 units penicillin-streptomycin (Irvine Scientific). When cells were 80% confluent, they were plated to 12 well polystyrene plates (Costar). […]
Nicotinic acetylcholine receptor (nAChR) function was assayed using ^86Rb^+efflux according to a method described by Lukas et al., Anal. Biochem. 175: 212 (1988). […] Scintillation fluid was added and released radioactivity was measured by liquid scintillation counting. […]
When appropriate, dose-response curves of test compound were determined. The maximal activation for individual compounds (Emax) was determined as a percentage of the maximal activation induced by L-nicotine. […]

In test [2] the test system is animals impaired with scopolamine. The test is described as follows: Radial Arm Maze (RAM) task, scopolamine-induced cognitive deficits. Format: in vivo, rat. The following applies: 3 mg/kg (15.1 μmol/kg) p.o. The method, then:
Working memory is a cognitive domain known to be impaired in schizophrenia; the Radial Arm Maze task is commonly used to assess potential cognitive benefit derived from the test compounds. Using this assay, Compound A (7,8,9,10-tetrahydro-6H-azepino[4,5-g]quinoxaline) attenuated cognitive deficits induced by scopolamine in an animal model of working memory. Working memory was assessed in a 3 trial radial arm maze (RAM) task. The RAM task was conducted using an automated eight-arm maze (Med Associates, Inc.) The maze was located on a circular table approximately 88 cm above the floor with overhead lighting in a dedicated testing room and large, high contrast geometric shapes on the wall. […] The central platform measured 30.5 cm in diameter with eight arms (9 cm W×45.7 cm L×16.8 cm H) radiating from it. […] Activity on the maze was monitored by tracking quantitative activity (generated by infra-red beam breaks) on the computer interface and monitor screen.
Following the baseline assessment on day 1 and after re-attainment of test session criterion, animals were assessed for their sensitivity to chemically-induced cognitive impairment using the muscarinic antagonist scopolamine (0.2-0.4 mg/kg; s.c.). A dose of scopolamine was determined for each animal based on the minimum dose that produced significant and reliable cognitive impairment. […]

T1 sequence (P32297 32-505): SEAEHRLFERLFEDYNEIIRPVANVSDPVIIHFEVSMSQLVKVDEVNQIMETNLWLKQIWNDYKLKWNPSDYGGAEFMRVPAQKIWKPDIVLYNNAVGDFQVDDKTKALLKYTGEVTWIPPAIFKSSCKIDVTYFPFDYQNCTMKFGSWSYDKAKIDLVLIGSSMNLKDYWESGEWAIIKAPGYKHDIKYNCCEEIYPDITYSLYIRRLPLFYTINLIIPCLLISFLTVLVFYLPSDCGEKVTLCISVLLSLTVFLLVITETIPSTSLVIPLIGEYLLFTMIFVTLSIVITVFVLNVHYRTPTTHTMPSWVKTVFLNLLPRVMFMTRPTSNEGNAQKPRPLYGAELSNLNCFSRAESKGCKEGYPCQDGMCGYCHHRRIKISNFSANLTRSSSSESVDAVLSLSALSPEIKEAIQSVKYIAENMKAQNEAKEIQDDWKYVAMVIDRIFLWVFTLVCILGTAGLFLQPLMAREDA
T1 sequence (P30926 22-498): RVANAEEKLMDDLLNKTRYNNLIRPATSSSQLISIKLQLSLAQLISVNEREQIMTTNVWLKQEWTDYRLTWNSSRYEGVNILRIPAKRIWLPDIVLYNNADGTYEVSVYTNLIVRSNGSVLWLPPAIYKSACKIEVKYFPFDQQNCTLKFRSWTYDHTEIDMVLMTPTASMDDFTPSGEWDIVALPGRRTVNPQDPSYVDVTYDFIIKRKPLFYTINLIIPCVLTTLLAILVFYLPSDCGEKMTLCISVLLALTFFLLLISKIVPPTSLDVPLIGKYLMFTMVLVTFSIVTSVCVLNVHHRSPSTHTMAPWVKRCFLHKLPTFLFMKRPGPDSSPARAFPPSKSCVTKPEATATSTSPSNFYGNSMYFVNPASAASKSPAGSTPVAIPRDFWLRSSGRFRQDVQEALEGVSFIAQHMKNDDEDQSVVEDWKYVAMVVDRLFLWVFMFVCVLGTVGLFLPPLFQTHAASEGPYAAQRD

`c1cnc2cc3c(cc2n1)CCNCC3` [Compound A, 7,8,9,10-tetrahydro-6H-azepino[4,5-g]quinoxaline]: the EC50 in test [1] (86Rb+ efflux) came out at 4.4 µM. This compound displayed a maximal effect (Emax) in test [1] (percentage of maximal activation induced by L-nicotine) of 21%. Moreover, in test [2], the “effect on scopolamine-induced cognitive deficits, RAM” value is “attenuated scopolamine-induced cognitive deficits”.
